According to patent US5912258A, “Thiadiazoleamide derivative and anti-ulcer drug” (Shiseido Co., Ltd., priority 1998, dated 1999):

What was measured:
stress ulcer formation = experiment: WIS: Restraint and Water Immersion Stress-Induced Ulcer Inhibition Test; format: in vivo, Male Crj:SD or Slc:SD rats; settings: rat, 100 mg/kg orally, 7 hours water immersion stress
Method: WIS: Restraint and Water Immersion Stress-Induced Ulcer Inhibition Test (i) Meaning The degree of inhibition of the stress ulcer formation is tested. (ii) Method Male Crj:SD or Slc:SD rats (6 to 7-weeek-old) were fasted overnight, but allowed free access to water. Each group has 5 to 8 of these rats. The sample compound was dissolved or suspended in an aqueous solution of 0.3% sodium carboxymethylcellulose or 0.05% Tween 80 and then was orally administered (100 mg/10 ml/kg). To a control group, the vehicle was administered. 10 minutes later, the rats were placed in a stress cage and immersed to the level of xiphoid process in a water bath (21° C.) for 7 hours. At the end of the stress, the rats were sacrificed by inhalation of ether or carbon dioxide. Then, the stomach of each was removed, inflated by injecting 10 ml of 5% formalin neutral buffer solution, and immersed in 1% formalin neutral buffer solution for 30 minutes or more to be fixed. The stomach was incised along the greater curvature and then the length of each erosion in the glandular portion was determined under dissecting microscope. The sum of the length of erosions per stomach was defined as ulcer index (UI). (iii) Judgment Standard […]

[1] = MTT: Cell Damaging and Protecting Effect Test; format: cell-based, male Japanese White rabbit; settings: rabbit, gastric mucosa cells, 10^-4 M, smaller value is better, read-out: MTT: cell damaging rate
Excerpt: MTT: Cell Damaging and Protecting Effect Test
It is confirmed that there is no toxicity in cell level. Those having toxicity in cell level are inappropriate as an anti-ulcer drug.
A male Japanese White rabbit (2.5 to 3 kg) was anesthetized to death by Nembutal™ and, immediately thereafter, its stomach was removed. The greater curvature of the stomach was incised so as to remove the stomach contents therefrom. After the mucosal surface was washed with HBSS (Hank's Balanced Salt Solution), the stomach in ice-cooled HBSS was transferred to a laboratory. Then, after the pyloric antrum was removed, the gastric corpus mucosa was separated by a spatula and then minced into 2 to 3 mm pieces in BME (Basal Medium Eagle). Thereafter, these pieces were shaken at 120 to 130 cycles/minute for 15 minutes at 37° C. in BME 60 ml containing 280 U/ml of dispase and 30 to 50 U/mil of collagenase. Here, the concentration of collagenase was appropriately changed for each lot in view of the state of cells. The pieces were washed twice with EBSS (Earle's Balanced Salt Solution) containing 1 mM of EDTA and then shaken in MEM (Minimum Essential Medium) containing 1 mM of EDTA at 37° C. for 5 minutes. Subsequently, they were shaken in the dispase and collagenase having the same concentrations as those mentioned above for 15 minutes so as to remove the supernatant and then further shaken at 37° C. for 50 to 60 minutes at 120 to 130 cycles/minute. Then, after being washed twice with HBSS, Ham F12 containing 2% of Ultrocer G™ was used to attain the concentration of 1×10^6 cells/ml. Thus formed suspension was dispensed in each well of a 96-well plate by 200 μl. The plate was incubated in the atmosphere composed of 5% CO2 and 95% air at 37° C. for three days so as to attain a confluent state and then subjected to MTT assay.
The sample compound was dissolved in DMSO so as to attain a concentration of 10^-2 M and then diluted with HBSS containing 2% of Ultrocer G™ so as to attain a final concentration of 10^-4 M. To each group, which 8 wells were used for, 10 μl of MTT reagent was added immediately after 100 μl of the medium in each well was exchanged for same volume of the resulting solution of the sample compound. After being incubated in an atmosphere composed of 5% CO2 and 95% air at 37° C. for 4 hours, thus formed solution was centrifuged and then its supernatant was discarded. Subsequently, 100 μl of 100% ethanol was added to the residue so as to dissolve MTT formazan. Then, the absorbance (OD: 570 to 630) was measured by a microplate reader. This method utilizes a phenomenon in which MTT is changed to MTT formazan only by mitochondria of living cells so as to change color.
The cell damaging or cell protecting effect of the sample compound at the final concentration of 10^-4 M was expressed as cell damaging rate (%) as follows:
cell damaging rate (%)={1-(absorbance in sample group/absorbance in control group)}×100
Accordingly, the smaller value is better in the cell damaging rate.

| Structure (SMILES) | WIS: ulcer formation inhibitory rate (stress ulcer formation) [%] | cytotoxicity at 4 h, 100 µM [1] [%] |
| --- | --- | --- |
| CCN(CC)CCSc1nnc(NC(=O)c2ccc(C(C)C)cc2)s1 [Example 1, 2-(4-isopropylbenzoyl)amino-5-diethylaminoethylthio-1,3,4-thiadiazole] | 83 | 22 |
| CC(C)c1ccc(C(=O)Nc2nnc(SCCN(C(C)C)C(C)C)s2)cc1 [Example 2, 2-(4-isopropylbenzoyl)amino-5-diisopropylaminoethylthio-1,3,4-thiadiazole] | 80 |  |
| CCN(CC)CCSc1nnc(NC(=O)c2ccc(C(C)(C)C)cc2)s1 [Example 4, 2-(4-tert-butylbenzoyl)amino-5-diethylaminoethylthio-1,3,4-thiadiazole] | 79 | 22 |
| CCN(CC)CCSc1nnc(NC(=O)c2ccc(OC/C=C(\C)CCC=C(C)C)cc2)s1 [Example 10, 2-(4-geranyloxybenzoyl)amino-5-diethylaminoethylthio-1,3,4-thiadiazole] | 48 | 17 |
| CC(C)=CCC/C(C)=C/COc1ccc(C(=O)Nc2nnc(SCCN3CCCCC3)s2)cc1 [Example 12, 2-(4-geranyloxybenzoyl)amino-5-piperidinoethylthio-1,3,4-thiadiazole] | 44 | 12 |
| CC(C)=CCC/C(C)=C/COc1ccc(C(=O)Nc2nnc(SCc3ccccn3)s2)cc1 [Example 14, 2-(4-geranyloxybenzoyl)amino-5-(2-pyridylmethyl)thio-1,3,4-thiadiazole] | 30 | -13 |
| CCSc1nnc(NC(=O)c2ccc(OC/C=C(\C)CCC=C(C)C)cc2)s1 [Example 15, 2-(4-geranyloxybenzoyl)amino-5-ethylthio-1,3,4-thiadiazole] | 43 | 1 |
